In patent US11725036B2, “Modified lipidated relaxin B chain peptides and their therapeutic use” (Sanofi, priority 2018, dated 2023):
Starred links: 1 amine or outer side, 2 acyl side, 3 side chain; linkers in the order of their positions; H or OH if unused. Non-standard residues stand in square brackets, D forms with d. Residues, ends and D or L forms follow the SMILES beside them. Groups on a side chain read outwards from the residue. *: point of attachment. X16 = CCCCCCCCCCCCCCCCCC(=O)N[C@@H](CCC(=O)N[C@@H](CCC(=O)N[C@@H](CCC(=O)NCCCOCCOCCOCCCNC(=O)CCC(=O)NCCCOCCOCCOCCCNC(=O)CCC(=O)NCCCOCCOCCOCCCNC(=O)CCC(=O)NCCCOCCOCCOCCCN*)C(=O)O)C(=O)O)C(=O)O; X1 = CCCCCCCCCCCCCCCC(=O)N[C@@H](CCC(=O)N[C@@H](CCC(=O)N[C@@H](CCC(=O)NCCCOCCOCCOCCCNC(=O)CCC(=O)NCCCOCCOCCOCCCNC(=O)CCC(=O)NCCCOCCOCCOCCCN*)C(=O)O)C(=O)O)C(=O)O; X6 = CCCCCCCCCCCCCC(=O)N[C@@H](CCC(=O)N[C@@H](CCC(=O)N[C@@H](CCC(=O)NCCCOCCOCCOCCCNC(=O)CCC(=O)NCCCOCCOCCOCCCNC(=O)CCC(=O)NCCCOCCOCCOCCCN*)C(=O)O)C(=O)O)C(=O)O; Cit = NC(=O)NCCC[C@H](N)C(=O)O; Suc = O=C(CCC(=O)[*:2])[*:1]; αMeK = C[C@](N)(CCCCN)C(=O)O; Aib = CC(C)(N)C(=O)O

Biological target: T1, RXFP1 (Homo sapiens, UniProt Q9HBX9)
T1 construct: OVCAR5 cells expressing endogenous RXFP1; endogenous in cells; host or cells: OVCAR5
T1 sequence (Q9HBX9 1-757): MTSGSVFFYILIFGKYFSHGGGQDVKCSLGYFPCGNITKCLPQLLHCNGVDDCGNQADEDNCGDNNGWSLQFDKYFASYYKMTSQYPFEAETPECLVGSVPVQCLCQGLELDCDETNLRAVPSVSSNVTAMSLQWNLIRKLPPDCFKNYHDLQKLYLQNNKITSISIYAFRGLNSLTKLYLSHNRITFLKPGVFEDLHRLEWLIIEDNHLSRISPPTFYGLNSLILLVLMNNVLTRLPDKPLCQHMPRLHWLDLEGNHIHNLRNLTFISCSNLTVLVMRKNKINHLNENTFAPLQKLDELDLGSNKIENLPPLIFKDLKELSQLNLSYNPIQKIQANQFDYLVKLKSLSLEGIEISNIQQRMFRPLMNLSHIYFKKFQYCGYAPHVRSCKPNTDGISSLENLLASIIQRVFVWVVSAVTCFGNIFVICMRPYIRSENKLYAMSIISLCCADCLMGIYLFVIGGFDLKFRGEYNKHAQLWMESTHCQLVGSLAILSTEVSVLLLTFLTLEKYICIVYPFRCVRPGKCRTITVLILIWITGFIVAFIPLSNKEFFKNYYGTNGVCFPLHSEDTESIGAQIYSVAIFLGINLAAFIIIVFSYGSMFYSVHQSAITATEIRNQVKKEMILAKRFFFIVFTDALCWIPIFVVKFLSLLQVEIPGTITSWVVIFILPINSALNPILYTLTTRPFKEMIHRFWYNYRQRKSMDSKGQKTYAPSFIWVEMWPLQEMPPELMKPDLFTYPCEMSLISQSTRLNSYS
Assay: OVCAR5 cAMP assay (HTRF)
Format: cell-based
Settings: for EC50: OVCAR 5 cells expressing endogenous RXFP1, cAMP readout; for Emax: OVCAR 5 cells, maximal cAMP relative to H2-relaxin
In short: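 Endogenous RXFP1 in OVCAR5 cells, pretreated 40 min at 37° C with 1 mM IBMX, then exposed to increasing peptide concentrations in serum-free medium for 30 min at 37° C. cAMP read by HTRF; EC50 by variable-slope sigmoidal fit, Emax as % of H2-relaxin maximal cAMP in same run.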

SMILES | EC50 [nM] | Emax [%]
CCCCCCCCCCCCCCCC(=O)N[C@@H](CCC(=O)N[C@@H](CCC(=O)N[C@@H](CCC(=O)NCCCOCCOCCOCCCNC(=O)CCC(=O)NCCCOCCOCCOCCCNC(=O)CCC(=O)NCCCOCCOCCOCCCNC(=O)CCC(=O)NCCCC[C@H](NC(=O)CNC(=O)[C@H](CCC(=O)O)NC(=O)C(C)(C)NC(=O)C(C)(C)NC(=O)[C@@H](NC(=O)[C@H](CCCCNC(C)=O)NC(=O)[C@H](C)NC(=O)[C@H](CCCNC(=N)N)NC(=O)[C@@H](NC(=O)[C@H](CCCNC(=N)N)NC(=O)[C@H](CCC(=O)O)NC(=O)[C@H](CCCNC(=N)N)NC(=O)CNC(=O)[C@H](CCC(=O)O)NC(=O)[C@H](CC(C)C)NC(C)=O)C(C)C)[C@@H](C)CC)C(=O)N[C@@H](CO)C(=O)N[C@H](C(=O)N[C@@H](Cc1ccccc1)C(=O)N[C@@H](CO)C(=O)NC(C)(C)C(=O)N[C@@H](CCCNC(=N)N)C(=O)N[C@@H](CCCNC(=N)N)C(=O)N[C@@H](CCCCNC(C)=O)C(N)=O)[C@@H](C)O)C(=O)O)C(=O)O)C(=O)O [compound 76] (Ac-LEGRERVRAK(Ac)I[Aib][Aib]EGK([Suc-X1])STFS[Aib]RRK(Ac)-NH2) | 0.18 | 96
CCCCCCCCCCCCCCCC(=O)N[C@@H](CCC(=O)N[C@@H](CCC(=O)N[C@@H](CCC(=O)NCCCOCCOCCOCCCNC(=O)CCC(=O)NCCCOCCOCCOCCCNC(=O)CCC(=O)NCCCOCCOCCOCCCNC(=O)CCC(=O)NCCCC[C@H](NC(=O)CNC(=O)[C@H](CCC(=O)O)NC(=O)C(C)(C)NC(=O)C(C)(C)NC(=O)[C@@H](NC(=O)[C@H](CCCNC(N)=O)NC(=O)[C@H](C)NC(=O)[C@H](CCCNC(=N)N)NC(=O)[C@@H](NC(=O)[C@H](CCCCN)NC(=O)[C@H](CCC(=O)O)NC(=O)[C@H](CCCNC(=N)N)NC(=O)CNC(=O)[C@H](CCC(=O)O)NC(=O)[C@H](CC(C)C)NC(C)=O)C(C)C)[C@@H](C)CC)C(=O)N[C@@H](CO)C(=O)N[C@H](C(=O)N[C@@H](Cc1ccccc1)C(=O)N[C@@H](CO)C(=O)N[C@@](C)(CCCCN)C(=O)N[C@@H](CCCNC(=N)N)C(=O)N[C@@H](C)C(=O)N[C@@H](CCCCNC(C)=O)C(N)=O)[C@@H](C)O)C(=O)O)C(=O)O)C(=O)O [compound 12] (Ac-LEGREKVRA[Cit]I[Aib][Aib]EGK([Suc-X1])STFS[αMeK]RAK(Ac)-NH2) | 0.93 | 90
CCCCCCCCCCCCCCCC(=O)N[C@@H](CCC(=O)N[C@@H](CCC(=O)N[C@@H](CCC(=O)NCCCOCCOCCOCCCNC(=O)CCC(=O)NCCCOCCOCCOCCCNC(=O)CCC(=O)NCCCOCCOCCOCCCNC(=O)CCC(=O)NCCCC[C@H](NC(=O)CNC(=O)[C@H](CCC(=O)O)NC(=O)C(C)(C)NC(=O)C(C)(C)NC(=O)[C@@H](NC(=O)[C@H](CCCCNC(C)=O)NC(=O)[C@H](C)NC(=O)[C@H](CCCNC(=N)N)NC(=O)[C@@H](NC(=O)[C@H](CCCCN)NC(=O)[C@H](CCC(=O)O)NC(=O)[C@H](CCCNC(=N)N)NC(=O)CNC(=O)[C@H](CCC(=O)O)NC(=O)[C@H](CC(C)C)NC(C)=O)C(C)C)[C@@H](C)CC)C(=O)N[C@@H](CO)C(=O)N[C@H](C(=O)N[C@@H](Cc1c[nH]c2ccccc12)C(=O)N[C@@H](CCCCNC(C)=O)C(=O)NC(C)(C)C(=O)N[C@@H](CCCNC(=N)N)C(=O)N[C@@H](C)C(=O)N[C@@H](CCCCNC(C)=O)C(N)=O)[C@@H](C)O)C(=O)O)C(=O)O)C(=O)O [compound 66] (Ac-LEGREKVRAK(Ac)I[Aib][Aib]EGK([Suc-X1])STWK(Ac)[Aib]RAK(Ac)-NH2) |  | 93
CCCCCCCCCCCCCC(=O)N[C@@H](CCC(=O)N[C@@H](CCC(=O)N[C@@H](CCC(=O)NCCCOCCOCCOCCCNC(=O)CCC(=O)NCCCOCCOCCOCCCNC(=O)CCC(=O)NCCCOCCOCCOCCCNC(=O)CCC(=O)NCCCC[C@H](NC(=O)CNC(=O)[C@H](CCC(=O)O)NC(=O)C(C)(C)NC(=O)C(C)(C)NC(=O)[C@@H](NC(=O)[C@H](CCCCNC(C)=O)NC(=O)[C@H](C)NC(=O)[C@H](CCCNC(=N)N)NC(=O)[C@@H](NC(=O)[C@H](CCCCN)NC(=O)[C@H](CCC(=O)O)NC(=O)[C@H](CCCNC(=N)N)NC(=O)CNC(=O)[C@H](CCC(=O)O)NC(=O)[C@H](CC(C)C)NC(C)=O)C(C)C)[C@@H](C)CC)C(=O)N[C@@H](CO)C(=O)N[C@H](C(=O)N[C@@H](Cc1ccccc1)C(=O)N[C@@H](CO)C(=O)N[C@@](C)(CCCCN)C(=O)N[C@@H](CCCNC(=N)N)C(=O)N[C@@H](C)C(=O)N[C@@H](CCCCN)C(N)=O)[C@@H](C)O)C(=O)O)C(=O)O)C(=O)O [compound 96] (Ac-LEGREKVRAK(Ac)I[Aib][Aib]EGK([Suc-X6])STFS[αMeK]RAK-NH2) | 0.88 | 92
CCCCCCCCCCCCCCCC(=O)N[C@@H](CCC(=O)N[C@@H](CCC(=O)N[C@@H](CCC(=O)NCCCOCCOCCOCCCNC(=O)CCC(=O)NCCCOCCOCCOCCCNC(=O)CCC(=O)NCCCOCCOCCOCCCNC(=O)CCC(=O)NCCCC[C@H](NC(=O)CNC(=O)[C@H](CCC(=O)O)NC(=O)C(C)(C)NC(=O)C(C)(C)NC(=O)[C@@H](NC(=O)[C@H](CCCCNC(C)=O)NC(=O)C(C)(C)NC(=O)[C@H](CCCNC(=N)N)NC(=O)[C@@H](NC(=O)[C@H](CCCNC(=N)N)NC(=O)[C@H](CCC(=O)O)NC(=O)[C@H](CCCNC(=N)N)NC(=O)CNC(=O)[C@H](CCC(=O)O)NC(=O)[C@H](CC(C)C)NC(C)=O)C(C)C)[C@@H](C)CC)C(=O)N[C@@H](CO)C(=O)N[C@H](C(=O)N[C@@H](Cc1c[nH]c2ccccc12)C(=O)N[C@@H](CO)C(=O)NC(C)(C)C(=O)N[C@@H](CCCNC(=N)N)C(=O)N[C@@H](CCCNC(=N)N)C(=O)N[C@@H](CCCCNC(C)=O)C(N)=O)[C@@H](C)O)C(=O)O)C(=O)O)C(=O)O [compound 85] (Ac-LEGRERVR[Aib]K(Ac)I[Aib][Aib]EGK([Suc-X1])STWS[Aib]RRK(Ac)-NH2) | 0.3 | 92
CCCCCCCCCCCCCCCCCC(=O)N[C@@H](CCC(=O)N[C@@H](CCC(=O)N[C@@H](CCC(=O)NCCCOCCOCCOCCCNC(=O)CCC(=O)NCCCOCCOCCOCCCNC(=O)CCC(=O)NCCCOCCOCCOCCCNC(=O)CCC(=O)NCCCOCCOCCOCCCNC(=O)CCC(=O)NCCCC[C@H](NC(=O)CNC(=O)[C@H](CCC(=O)O)NC(=O)C(C)(C)NC(=O)C(C)(C)NC(=O)[C@@H](NC(=O)[C@H](CCCCNC(C)=O)NC(=O)[C@H](C)NC(=O)[C@H](CCCNC(=N)N)NC(=O)[C@@H](NC(=O)[C@H](CCCCN)NC(=O)[C@H](CCC(=O)O)NC(=O)[C@H](CCCNC(=N)N)NC(=O)CNC(=O)[C@H](CCC(=O)O)NC(=O)[C@H](CC(C)C)NC(C)=O)C(C)C)[C@@H](C)CC)C(=O)N[C@@H](CO)C(=O)N[C@H](C(=O)N[C@@H](Cc1c[nH]c2ccccc12)C(=O)N[C@@H](CO)C(=O)NC(C)(C)C(=O)N[C@@H](CCCNC(=N)N)C(=O)N[C@@H](CCCCN)C(=O)N[C@@H](CCCCNC(C)=O)C(N)=O)[C@@H](C)O)C(=O)O)C(=O)O)C(=O)O [compound 58] (Ac-LEGREKVRAK(Ac)I[Aib][Aib]EGK([Suc-X16])STWS[Aib]RKK(Ac)-NH2) |  | 98
CCCCCCCCCCCCCCCC(=O)N[C@@H](CCC(=O)N[C@@H](CCC(=O)N[C@@H](CCC(=O)NCCCOCCOCCOCCCNC(=O)CCC(=O)NCCCOCCOCCOCCCNC(=O)CCC(=O)NCCCOCCOCCOCCCNC(=O)CCC(=O)NCCCC[C@H](NC(=O)CNC(=O)[C@H](CCC(=O)O)NC(=O)C(C)(C)NC(=O)[C@H](C)NC(=O)[C@@H](NC(=O)[C@H](CCCCNC(C)=O)NC(=O)[C@H](C)NC(=O)[C@H](CCCNC(=N)N)NC(=O)[C@@H](NC(=O)[C@H](CCCCN)NC(=O)[C@H](CCC(=O)O)NC(=O)[C@H](CCCNC(=N)N)NC(=O)CNC(=O)[C@H](CCC(=O)O)NC(=O)[C@H](CC(C)C)NC(C)=O)C(C)C)[C@@H](C)CC)C(=O)N[C@@H](CO)C(=O)N[C@H](C(=O)N[C@@H](Cc1ccccc1)C(=O)N[C@@H](CO)C(=O)N[C@@](C)(CCCCN)C(=O)N[C@@H](CCCNC(=N)N)C(=O)N[C@@H](C)C(=O)N[C@@H](CCCCNC(C)=O)C(N)=O)[C@@H](C)O)C(=O)O)C(=O)O)C(=O)O [compound 90] (Ac-LEGREKVRAK(Ac)IA[Aib]EGK([Suc-X1])STFS[αMeK]RAK(Ac)-NH2) | 0.14 | 97
